Common to all, as to test: Pull-down assay with immobilized protein and LSM libraries
For one assay, the target named is T1, S100A4 (Homo sapiens, UniProt P26447).
T1 construct: made in house; host or cells: Escherichia coli BL21(DE3)
It counts as binding. Conditions: 1:1 binding assumed, read-out: Surface mapping KD (apparent). Summed up:
(§1)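 Buffers were HEPES pH 7.4 with 150 mM NaCl, plus 1 mM TCEP and 1 mM CaCl2 (50 mM HEPES) for S100A4 and S100B, 1 mM TCEP for Gal-1, and no additive for RecQ-WH. Immobilized protein at 64 µM was equilibrated 30 min with the LSM sublibrary, and unbound probes were measured by LC-MS.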

The next assay addresses T2, S100B (Homo sapiens, UniProt P04271).
T2 construct: made in house; host or cells: Escherichia coli BL21(DE3)
T2 sequence (P04271 1-92): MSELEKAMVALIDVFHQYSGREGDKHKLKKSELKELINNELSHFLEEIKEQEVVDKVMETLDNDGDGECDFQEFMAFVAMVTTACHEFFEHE
It counts as binding. Conditions: 1:1 binding assumed, read-out: Surface mapping KD (apparent). A digest of the protocol:
as §1

For the next assay, the target named is T3, Gal-1 (Homo sapiens, UniProt P09382).
T3 construct: made in house; host or cells: E. coli BL21(DE3)
It counts as binding. Conditions: H12 library; 1:1 binding assumed; read-out: Surface mapping KD (apparent). Summed up:
as §1

A further assay deals with T4, CaM (Bos taurus, UniProt P62157).
T4 construct: made in house; host or cells: E. coli BL21 (DE3)
It counts as binding, bovine. A digest of the protocol: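 CaM buffer was 20 mM HEPES pH 7.4, 150 mM NaCl, 5 mM CaCl2. LSM sublibrary members ([…]) incubated 30 min, RT, with equimolar His-tagged protein on Co-NTA resin. HPLC-MS measured unbound probes; bound fraction relative to resin-only background gave dissociation constants.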

The mark [1] stands for this setting: H12 library, 1:2 stoichiometry assumed, read-out: Surface mapping KD (apparent).
Where [2] appears, read: H14 library, 1:2 stoichiometry assumed, read-out: Surface mapping KD (apparent).

Here are results for 18 molecules from paper PMC8162404, “Proteomimetic surface fragments distinguish targets by function” (Chemical Science, 2020).

Where two headings read alike, the source gives them in different places.

T1 sequence (P26447 whole entry): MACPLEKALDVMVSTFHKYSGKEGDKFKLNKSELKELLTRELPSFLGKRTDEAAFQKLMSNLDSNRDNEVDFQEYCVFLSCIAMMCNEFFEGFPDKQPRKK
T3 sequence (P09382 whole entry): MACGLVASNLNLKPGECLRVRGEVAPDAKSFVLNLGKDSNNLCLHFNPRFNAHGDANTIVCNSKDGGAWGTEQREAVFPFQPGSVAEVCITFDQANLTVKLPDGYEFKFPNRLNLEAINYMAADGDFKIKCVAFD

On to `N=C(N)NCCC[C@@H](CC(=O)N[C@H]1CCC[C@@H]1C(=O)N[C@H]1CCC[C@@H]1C(=O)N[C@H](CC(=O)N[C@H]1CCC[C@@H]1C(=O)N[C@H]1CCC[C@@H]1C(N)=O)Cc1c[nH]c2ccccc12)NC(=O)[C@H]1CCC[C@@H]1NC(=O)[C@H]1CCC[C@@H]1N` [H12 RW], for which the Kd turned out to be 95 µM on S100A4 (H12 library), 25 µM on S100B (H12 library), 126 µM at Gal-1 and 19 µM at CaM (setting [1]).
`CC[C@H](C)[C@@H](CC(=O)N[C@H]1CCC[C@@H]1C(=O)N[C@H]1CCC[C@@H]1C(N)=O)NC(=O)[C@H]1CCC[C@@H]1NC(=O)[C@H]1CCC[C@@H]1NC(=O)C[C@@H](NC(=O)[C@H]1CCC[C@@H]1NC(=O)[C@H]1CCC[C@@H]1N)C(C)C` [H12 VI]: the Kd on S100A4 (H12 library) is 190 µM; on S100B (H12 library), 92 µM; at Gal-1 it was 469 µM; at CaM (setting [1]), 164 µM.
For the molecule `CC(C)C[C@@H](CC(=O)N[C@H]1CCC[C@@H]1C(=O)N[C@H]1CCC[C@@H]1C(N)=O)NC(=O)[C@H]1CCC[C@@H]1NC(=O)[C@H]1CCC[C@@H]1NC(=O)C[C@H](Cc1c[nH]c2ccccc12)NC(=O)[C@H]1CCC[C@@H]1NC(=O)[C@H]1CCC[C@@H]1N` [H12 WL], the Kd on S100A4 (H12 library) was 105 µM; at S100B (H12 library), 21 µM; on Gal-1 it was 200 µM; at CaM (setting [1]), 27 µM.
Take `CC[C@H](C)[C@@H](CC(=O)N[C@H]1CCC[C@@H]1C(=O)N[C@H]1CCC[C@@H]1C(=O)N[C@H](CC(=O)N[C@H]1CCC[C@@H]1C(=O)N[C@H]1CCC[C@@H]1C(N)=O)CC(C)C)NC(=O)[C@H]1CCC[C@@H]1NC(=O)[C@H]1CCC[C@@H]1N` [H12 IL]: the Kd on S100A4 (H12 library) was 79 µM; on S100B (H12 library), 25 µM; at Gal-1, 395 µM; at CaM (setting [1]), 67 µM.
Turning to `CC[C@H](C)[C@@H](CC(=O)N[C@H]1CCC[C@@H]1C(=O)N[C@H]1CCC[C@@H]1C(N)=O)NC(=O)[C@H]1CCC[C@@H]1NC(=O)[C@H]1CCC[C@@H]1NC(=O)C[C@H](CC(C)C)NC(=O)[C@H]1CCC[C@@H]1NC(=O)[C@H]1CCC[C@@H]1N` [H12 LI], the Kd on S100A4 (H12 library) was found to be 143 µM; on S100B (H12 library), 37 µM; at Gal-1 it was 415 µM; on CaM (setting [1]), 67 µM.
For `CC[C@H](C)[C@@H](CC(=O)N[C@H]1CCC[C@@H]1C(=O)N[C@H]1CCC[C@@H]1C(=O)N[C@H](CC(=O)N[C@H]1CCC[C@@H]1C(=O)N[C@H]1CCC[C@@H]1C(N)=O)Cc1ccc(O)cc1)NC(=O)[C@H]1CCC[C@@H]1NC(=O)[C@H]1CCC[C@@H]1N` [H12 IY] the same measures were 100 µM, 56 µM, 347 µM and 28 µM.
For `CC(C)C[C@@H](CC(=O)N[C@H]1CCC[C@@H]1C(=O)N[C@H]1CCC[C@@H]1C(=O)N[C@H](CC(=O)N[C@H]1CCC[C@@H]1C(=O)N[C@H]1CCC[C@@H]1C(N)=O)Cc1c[nH]c2ccccc12)NC(=O)[C@H]1CCC[C@@H]1NC(=O)[C@H]1CCC[C@@H]1N` [H12 LW], the Kd at S100A4 (H12 library) is 28 µM; at S100B (H12 library), 11 µM; at Gal-1, 368 µM; at CaM (setting [1]), 19 µM.
Regarding `CSCC[C@@H](CC(=O)N[C@H]1CCC[C@@H]1C(=O)N[C@H]1CCC[C@@H]1C(=O)N[C@H](CC(=O)N[C@H]1CCC[C@@H]1C(=O)N[C@H]1CCC[C@@H]1C(N)=O)Cc1c[nH]c2ccccc12)NC(=O)[C@H]1CCC[C@@H]1NC(=O)[C@H]1CCC[C@@H]1N` [H12 MW], the Kd is 170 µM on S100A4 (H12 library), 26 µM at S100B (H12 library) and 42 µM on CaM (setting [1]).
On to `CC(C)C[C@@H](CC(=O)N[C@H]1CCCC[C@@H]1C(N)=O)NC(=O)[C@H]1CCCC[C@@H]1NC(=O)[C@H]1CCCC[C@@H]1NC(=O)C[C@H](CCCCN)NC(=O)[C@H]1CCCC[C@@H]1N` [H14 KL], for which the Kd came out at 85 µM at S100A4 (H14 library), 80 µM at S100B (H14 library) and 22 µM on CaM (setting [2]).
Consider `NC(=O)[C@H]1CCC[C@@H]1NC(=O)[C@H]1CCC[C@@H]1NC(=O)C[C@H](Cc1ccccc1)NC(=O)[C@H]1CCC[C@@H]1NC(=O)[C@H]1CCC[C@@H]1NC(=O)C[C@H](Cc1ccc(O)cc1)NC(=O)[C@H]1CCC[C@@H]1NC(=O)[C@H]1CCC[C@@H]1N` [H12 YF], for which the Kd worked out at 239 µM at S100A4 (H12 library), 36 µM on S100B (H12 library) and 30 µM at CaM (setting [1]).
For `CSCC[C@@H](CC(=O)N[C@H]1CCC[C@@H]1C(=O)N[C@H]1CCC[C@@H]1C(=O)N[C@H](CC(=O)N[C@H]1CCC[C@@H]1C(=O)N[C@H]1CCC[C@@H]1C(N)=O)Cc1ccccc1)NC(=O)[C@H]1CCC[C@@H]1NC(=O)[C@H]1CCC[C@@H]1N` [H12 MF] the same measures were 303 µM, 32 µM and 74 µM.
As to `CSCC[C@@H](CC(=O)N[C@H]1CCC[C@@H]1C(=O)N[C@H]1CCC[C@@H]1C(N)=O)NC(=O)[C@H]1CCC[C@@H]1NC(=O)[C@H]1CCC[C@@H]1NC(=O)C[C@H](Cc1ccccc1)NC(=O)[C@H]1CCC[C@@H]1NC(=O)[C@H]1CCC[C@@H]1N` [H12 FM], the Kd was 197 µM at S100A4 (H12 library), 39 µM at S100B (H12 library) and 42 µM on CaM.
`CC[C@H](C)[C@@H](CC(=O)N[C@H]1CCCC[C@@H]1C(N)=O)NC(=O)[C@H]1CCCC[C@@H]1NC(=O)[C@H]1CCCC[C@@H]1NC(=O)C[C@H](CCCCN)NC(=O)[C@H]1CCCC[C@@H]1N` [H14 KI]: the Kd amounted to 85 µM on S100A4 (H14 library), 80 µM at S100B (H14 library) and 22 µM at CaM (setting [2]).
On to `NC(=O)[C@H]1CCC[C@@H]1NC(=O)[C@H]1CCC[C@@H]1NC(=O)C[C@H](Cc1c[nH]c2ccccc12)NC(=O)[C@H]1CCC[C@@H]1NC(=O)[C@H]1CCC[C@@H]1NC(=O)C[C@H](Cc1ccc(O)cc1)NC(=O)[C@H]1CCC[C@@H]1NC(=O)[C@H]1CCC[C@@H]1N` [H12 YW], for which the results for the Kd on S100A4 (H12 library), on S100B (H12 library) and on CaM (setting [1]) were 153 µM, 28 µM and 30 µM, respectively.
For `CSCC[C@@H](CC(=O)N[C@H]1CCC[C@@H]1C(=O)N[C@H]1CCC[C@@H]1C(N)=O)NC(=O)[C@H]1CCC[C@@H]1NC(=O)[C@H]1CCC[C@@H]1NC(=O)C[C@H](Cc1c[nH]c2ccccc12)NC(=O)[C@H]1CCC[C@@H]1NC(=O)[C@H]1CCC[C@@H]1N` [H12 WM] the same measures were 98 µM, 20 µM and 42 µM.
For `CSCC[C@@H](CC(=O)N[C@H]1CCC[C@@H]1C(=O)N[C@H]1CCC[C@@H]1C(=O)N[C@H](CC(=O)N[C@H]1CCC[C@@H]1C(=O)N[C@H]1CCC[C@@H]1C(N)=O)CC(C)C)NC(=O)[C@H]1CCC[C@@H]1NC(=O)[C@H]1CCC[C@@H]1N` [H12 ML] the same measures were 245 µM, 81 µM and 98 µM.
For `NC(=O)[C@H]1CCC[C@@H]1NC(=O)[C@H]1CCC[C@@H]1NC(=O)C[C@H](Cc1ccc(O)cc1)NC(=O)[C@H]1CCC[C@@H]1NC(=O)[C@H]1CCC[C@@H]1NC(=O)C[C@H](Cc1c[nH]c2ccccc12)NC(=O)[C@H]1CCC[C@@H]1NC(=O)[C@H]1CCC[C@@H]1N` [H12 WY] the same measures were 153 µM, 28 µM and 30 µM.
In the case of `CC(C)[C@@H](CC(=O)N[C@H]1CCC[C@@H]1C(=O)N[C@H]1CCC[C@@H]1C(N)=O)NC(=O)[C@H]1CCC[C@@H]1NC(=O)[C@H]1CCC[C@@H]1NC(=O)C[C@H](Cc1c[nH]c2ccccc12)NC(=O)[C@H]1CCC[C@@H]1NC(=O)[C@H]1CCC[C@@H]1N` [H12 WV], the Kd at S100A4 (H12 library) came out at 183 µM; at S100B (H12 library), 38 µM; on CaM (setting [1]), 83 µM.
